Literature values in publication PMC6008299, “Impact of race on dose selection of molecular-targeted agents in early-phase oncology trials” (British Journal of Cancer, 2018).
Read-outs that look alike come from different tables or passages of the source. Marks after values point to notes of the source that are not given here.

How the values were obtained:
[1] = test system: patients with solid tumours; design: method as in PMID 15955900; details: recommended phase 2 dose; ref [11]–[44]; cited from earlier work
[2] = test system: patients with solid tumours; design: method as in PMID 15955900; details: recommended phase 2 dose; ref [11]–[44]; cited from earlier work; remark: listed apart in the source
[3] = cited from earlier work
[4] = Asian, at the MTD, ref not given, cited from earlier work
[5] = test system: patients with solid tumours; details: dose at which PK is compared; ref not given; cited from earlier work
[6] = at the MTD, Day 1, ref not given
[7] = at the MTD, Day 28, ref not given
[8] = at the MTD, Day 23 or 24, ref not given
[9] = at the MTD, Day 15, ref not given
[10] = at the MTD, Day 8, ref not given
[11] = at the MTD, Day 21, ref not given

## CNC(=O)c1cc(Oc2ccc(NC(=O)Nc3ccc(Cl)c(C(F)(F)F)c3)cc2)ccn1 [Sorafenib]
[1]
  RP2D (Japan): 400 mg BID
[2]
  RP2D (Western): 400 mg BID

## CCN(CC)CCNC(=O)c1c(C)[nH]c(/C=C2\C(=O)Nc3ccc(F)cc32)c1C [Sunitinib]
[3]; [6]
  AUC0-24: 420 ng·h/mL
  Tmax: 5.0 h
[3]; [7]
  AUC0-24: 1296 ng·h/mL
  Tmax: 8.5 h
[4]; Day 1
  AUC0-24: 374 ng·h/mL
  Cmax: 22.8 ng/mL
  Tmax: 7 h
[4]; Day 28
  AUC0-24: 1406 ng·h/mL
  Cmax: 69.3 ng/mL
  Tmax: 6 h
[1]
  RP2D (Japan): 50 mg QD
[5]
  MTD: 50 mg QD
[2]
  RP2D (Western): 50 mg QD

## COc1cc2nccc(Oc3ccc(NC(=O)NC4CC4)c(Cl)c3)c2cc1C(N)=O [Lenvatinib]
[3]; [6]
  AUC0-24: 3913.8 ng·h/mL
  Cmax: 598.0 ng/mL
  T1/2: 5.3 h
  Tmax: 1.5 h
[3]; [7]
  AUC0-24: 4783.0 ng·h/mL
  Cmax: 579.1 ng/mL
  T1/2: 5.8 h
  Tmax: 2.8 h
[4]; Day 1
  AUC0-24: 3150 ng·h/mL
  Cmax: 418 ng/mL
[4]; Day 15
  AUC0-24: 4140 ng·h/mL
  Cmax: 518 ng/mL
  Tmax: 2.0 h

## CS(=O)(=O)CCNCc1ccc(-c2ccc3ncnc(Nc4ccc(OCc5cccc(F)c5)c(Cl)c4)c3c2)o1 [Lapatinib]
[1]
  RP2D (Japan): 1500 mg QD
[2]
  RP2D (Western): 1250 mg QD

## C#Cc1cccc(Nc2ncnc3cc(OCCOC)c(OCCOC)cc23)c1 [Erlotinib]
[3]; [6]
  AUC0-24: 16510 ± 11020 ng·h/mL
  Cmax: 1136 ± 865 ng/mL
  T1/2: 20 ± 9.74 h
[3]; [8]
  AUC0-24: 38420 ± 29550 ng·h/mL
  Cmax: 2120 ± 1520 ng/mL
  T1/2: 18.18 ± 5.74 h
[4]; Day 1
  Cmax: 958 ± 457.19 ng/mL
  T1/2: 25.92 ± 9.31 h
  Tmax: 6.00 ± 8.92 h
[4]; Day 23 or 24
  Cmax: 2384.33 ± 932.43 ng/mL
  T1/2: 27.19 ± 9.07 h
  Tmax: 1.83 ± 0.41 h
[1]
  RP2D (Japan): 150 mg QD
[5]
  MTD: 150 mg QD
[2]
  RP2D (Western): 150 mg QD

## CNC(=O)c1ccccc1Sc1ccc2c(/C=C/c3ccccn3)n[nH]c2c1 [Axitinib]
[3]; [6]
  AUC0-24: 188 ng·h/mL
  Cmax: 22 ng/mL
  T1/2: 2.3 h
  Tmax: 3.2 h
[3]; [9]
  AUC0-24: 258 ng·h/mL
  Cmax: 27 ng/mL
  T1/2: 2.3 h
  Tmax: 2.4 h
[4]; Day 1
  AUC0-24: 142 ng·h/mL
  Cmax: 17.0 ng/mL
  T1/2: 4.8 h
  Tmax: 4.10 h
[4]; Day 15
  AUC0-24: 138 ng·h/mL
  Cmax: 21.4 ng/mL
  T1/2: 4.04 h
  Tmax: 1.37 h
[1]
  RP2D (Japan): 5 mg BID
[5]
  MTD: 5 mg BID
[2]
  RP2D (Western): 5 mg BID

## Cc1ccc(Nc2nccc(N(C)c3ccc4c(C)n(C)nc4c3)n2)cc1S(N)(=O)=O [Pazopanib]
[2]
  RP2D (Western): 800 mg QD

## Cc1cc(Nc2ncc(Cl)c(Nc3ccccc3S(=O)(=O)C(C)C)n2)c(OC(C)C)cc1C1CCNCC1 [Ceritinib]
[3]; [10]
  AUC0-24: 16,500±4750 ng·h/mL
  Cmax: 800 ± 205 ng/mL
  T1/2: 41 h
  Tmax: 4 to 6 h
[4]; Day 8
  AUC0-24: 25700 ng·h/mL
  Cmax: 1220 ng/mL
  Tmax: 6.96 h
[1]
  RP2D (Japan): 750 mg QD
[5]
  MTD: 750 mg QD
[2]
  RP2D (Western): 750 mg QD

## C[C@@H](Oc1cc(-c2cnn(C3CCNCC3)c2)cnc1N)c1c(Cl)ccc(F)c1Cl [Crizotonib]
[1]
  RP2D (Japan): 250 mg BID
[2]
  RP2D (Western): 250 mg BID

## CN(C)C/C=C/C(=O)Nc1cc2c(Nc3ccc(F)c(Cl)c3)ncnc2cc1O[C@H]1CCOC1 [Afatinib]
[3]; Caucasian, at the MTD, Day 1 (footnote *), ref not given
  AUC0-∞: 762* ng·h/mL
[3]; [6]
  T1/2: 21.9 h
  Tmax: 5.08 h
[3]; [7]
  AUC0-24: 598 ng·h/mL
  T1/2: 22.3 h
  Tmax: 5.00 h
[4]; Day 1
  AUC0-24: 539 ng·h/mL
  T1/2: 14.8 h
[4]; Day 28
  AUC0-24: 1010 ng·h/mL
  T1/2: 33.5 h
[1]
  RP2D (Japan): 50 mg QD
[5]
  MTD: 50 mg QD
[2]
  RP2D (Western): 50 mg QD

## CO[C@H]1C[C@@H]2CC[C@@H](C)[C@@](O)(O2)C(=O)C(=O)N2CCCC[C@H]2C(=O)O[C@H]([C@H](C)C[C@@H]2CC[C@@H](OCCO)[C@H](OC)C2)CC(=O)[C@H](C)/C=C(\C)[C@@H](O)[C@@H](OC)C(=O)[C@H](C)C[C@H](C)/C=C/C=C/C=C/1C [Everolimus]
[1]
  RP2D (Japan): 10 mg QD

## CNC(=O)c1cc(Oc2ccc(NC(=O)Nc3ccc(Cl)c(C(F)(F)F)c3)c(F)c2)ccn1 [Regorafenib]
[3]; [11]
  AUC0-24: 58270 ng·h/mL
  Cmax: 3904 ng/mL
  T1/2: 22.23 h
  Tmax: 5.033 h
[1]
  RP2D (Japan): 160 mg QD
[5]
  MTD: 160 mg QD
[2]
  RP2D (Western): 160 mg QD

## CCCS(=O)(=O)Nc1ccc(F)c(C(=O)c2c[nH]c3ncc(-c4ccc(Cl)cc4)cc23)c1F [Vemurafenib]
[3]; [9]
  Cmax: 61400 ng/mL
  T1/2: 34.1 h
[3]; in vivo
  Cmax: 4800 ng/mL
  Tmax: 5.0 h
[4]; Day 1
  T1/2: 12.7 h
[4]; Day 15
  T1/2: 60.8 h
[1]
  RP2D (Japan): 960 mg BID
[5]
  MTD: 960 mg BID
[2]
  RP2D (Western): 960 mg BID

## COc1cc2c(Nc3ccc(Br)cc3F)ncnc2cc1OCC1CCN(C)CC1 [Vandetanib]
[1]
  RP2D (Japan): 300 mg QD
[2]
  RP2D (Western): 300 mg QD
